The values that follow come from US20070111258A1, “Compositions and methods for modulating the acute phase response” (priority 2005, published 2007).

One test has as its system human CREBH. In words: Cleavage of flag-tagged human CREBH stably expressed in H2.35 cells (Western blot, cell fractionation). It counts as cell-based. The procedure:
FIG. 3 depicts the effects of ER stress on CREBH: proteolytic cleavage of CREBH to release its N-terminal fragment that translocates into the nucleus. (A) Illustration of transmembrane domains and lumenal domains of SREBP, ATF6, Luman and CREBH in human (hs), mouse (mm). The conserved residues for S1P and S2P recognition are highlighted. (B) Cleavage of CREBH in H2.35 cells under different stimuli. H2.35 cells stably expressing flag-tagged human CREBH were treated with 0.5 μg/ml BFA, 20 ng/ml TNFα, 40 ng/ml IL6, 5 mM DTT, 0.5 μM Tg or 5 μg/ml Tm for 8 hours. Untransfected H2.35 cells (lane 1) and the H2.35 cells that stably express human CREBH (lane 2) were cultured under normal conditions as control. Total cell lysates were collected for Western blot analysis by using an anti-flag monoclonal antibody (upper panel). Levels of α-actin were determined for control of protein loading (lower panel). (C) Cleavage of CREBH in H2.35 cells under Tm treatment for various time periods. The H2.35 cells stably expressing flag-tagged CREBH were cultured in the absence or presence of Tm (5 μg/ml) for 4, 8 or 12 hours. Membrane fractions were isolated from the total cell lysates, and were subjected to Western blot analysis of CREBH and calnexin, respectively. Nuclear fractions were isolated from the same total cell lysates and subjected to Western blot analysis of CREBH and PARP, respectively. (D) Translocation of CREBH in COS7 cells. COS7 cells were co-transfected with a construct expressing flag-tagged full-length CREBH (CREBH-F) or CREBH-ΔC and a construct expressing KDEL-RFP, and were then cultured in the absence or presence of Tm (5 μg/ml) for 4 hours. Cells were then stained with FITC-conjugated anti-flag antibody and subjected to Zeiss Confocal Microscope analysis. Magnification: 40×10.
For analysis of expression and cleavage of CREBH protein, total cell lysates were prepared from H2.35 cells or COS7 cells using Nonidet P-40 lysis buffer (1% NP-40, 50 mM Tris-HCl at pH 7.5, 150 mM NaCl, 0.05% SDS) supplemented with protease inhibitors (Complete Mini from Roche Applied Science), 0.1 mM sodium vanadate, and 1 mM sodium fluoride. Membrane and nuclear fractions of cell lysates were isolated as previously described (Dignam et al., 1983). The total cell lysate, membrane and nuclear fractions were subjected to SDS-PAGE and then analyzed by Western blot using anti-flag monoclonal antibody or other antibodies. Immunoprecipitation and Western blot analyses of ATF6 and CREBH interaction in 293T cells expressing flag-tagged CREBH protein were performed by using anti-human ATF6 and anti-flag antibodies. Total cell lysates from 293T cells transfected with control vector or pFlag-CREBH-ΔC were immunoprecipitated with anti-human ATF6 polyclonal antibody and anti-flag antibody, respectively. The immunoprecipitated cell lysates were then subjected to Western blotting by using anti-flag antibody to detect CREBH protein and using anti-human ATF6 antibody to detect ATF6 protein, respectively. The same total cell lysates were subjected to Western blotting by using anti-flag antibody to detect expression of CREBH protein in the transfected cells. For detecting endogenous CREBH protein in the liver extracts, an anti-mouse CREBH polyclonal antibody was raised in rabbits against a purified mouse CREBH peptide composed of amino acids 92-109 [[…]]. The rabbit anti-human ATF6 polyclonal antibody was generated in the inventor's laboratory. The anti-mouse calnexin monoclonal antibody and the anti-mouse monoclonal PRAP antibody were purchased from Stressgen Biotechnologies (Victoria, BC, Canada) and BD Bioscience (Mountain View, Calif., USA), respectively.

A further test has as its system CREBH. In words: Confocal immunofluorescence of CREBH translocation in COS7 cells. It counts as cell-based. Conditions: Tm 5 μg/ml 4 hours. How it is done: FIG. 3 depicts the effects of ER stress on CREBH: proteolytic cleavage of CREBH to release its N-terminal fragment that translocates into the nucleus. (A) Illustration of transmembrane domains and lumenal domains of SREBP, ATF6, Luman and CREBH in human (hs), mouse (mm). The conserved residues for S1P and S2P recognition are highlighted. (B) Cleavage of CREBH in H2.35 cells under different stimuli. H2.35 cells stably expressing flag-tagged human CREBH were treated with 0.5 μg/ml BFA, 20 ng/ml TNFα, 40 ng/ml IL6, 5 mM DTT, 0.5 μM Tg or 5 μg/ml Tm for 8 hours. Untransfected H2.35 cells (lane 1) and the H2.35 cells that stably express human CREBH (lane 2) were cultured under normal conditions as control. Total cell lysates were collected for Western blot analysis by using an anti-flag monoclonal antibody (upper panel). Levels of α-actin were determined for control of protein loading (lower panel). (C) Cleavage of CREBH in H2.35 cells under Tm treatment for various time periods. The H2.35 cells stably expressing flag-tagged CREBH were cultured in the absence or presence of Tm (5 μg/ml) for 4, 8 or 12 hours. […]
Immunofluorescence staining was performed as previously described (Paterson et al., 1995). […] The fluorescence images were examined by a confocal laser scanning fluorescence microscopy using an LSM510 (Carl Zeiss, Thornwood, N.Y.).

Another test concerns ApoB mRNA. The test is described as follows: Endogenous ApoB mRNA in mouse liver. It is filed as in vivo. Conditions: Tm 2 μg/gram body weight i.p.; liver at 24 hours.
The test system of a further test is CRP and SAP mRNA. The test is described as follows: CRP and SAP mRNA in mouse primary hepatocytes (Northern blot). It counts as cell-based. Conditions: Tm 5 μg/ml 2, 4, 6, 8 hours.
The test system of test [1] is BiP, CHOP, EDEM, spliced XBP1, SAP and CRP mRNAs. The test is described as follows: UPR and APR mRNA induction in mouse liver after injection (quantitative real-time RT-PCR). It is filed as in vivo. Conditions: intraperitoneal injection of Tm 2 mg/kg; 24 hours. Background: Real-time PCR tracks product formation cycle by cycle.
Method: Levels of spliced XBP1 mRNA were determined by quantitative real-time RT-PCR (lower panel). […] (B) Induction of CRP, SAP, BiP and spliced XBP1 mRNAs in mice injected with Tm. C57BU6J mice at 3-months of age were injected intraperitoneally with Tm (2 mg/kg body weight) in 150 mM dextrose solution. Mice were injected with the same volume of dextrose solution as a control. Liver tissues were collected from mice at 24 hours after injection for RNA isolation. (C-E) Induction of the BiP, CHOP, EDEM, spliced XBP1, SAP and CRP mRNAs in mice challenged with IL6, IL1β, LPS or Tm. Wild-type C57B1/6J mice at 3-months of age were intraperitoneally injected with recombinant murine IL6 (25 ng/gram body weight), recombinant murine IL1β (25 ng/gram body weight), LPS (3 μg/gram body weight) or Tm (2 μg/gram body weight). Mice were injected with the same volume of NaCL (for panels C and D) or dextrose (for panels E) solution as controls. At 24 hours after injection, liver samples were collected for isolating total RNA. Quantitative real-time RT-PCR was used to determine the mRNA levels. Fold changes of mRNA induction were determined after normalization of the mRNA levels to internal control 18S ribosomal RNA levels. Each bar denotes the mean±S.D., n=5 mice per injection.
Quantitative real-time RT-PCR was performed as previously described (Back et al., 2005). Briefly, total cellular RNA prepared was reverse-transcribed to cDNA using a random primer (Applied Biosystems). The reaction mixture, containing SYBR Green PCR Master Mix (Applied Biosystems), was run in a 7900HT Fast Real-Time PCR System (Applied Biosystems). Real-time PCR primer sequences for quantification of murine XBP1 mRNA splicing are: the forward primer 5′-[sequence]-3′, and the reverse primer 5′-[sequence]-3′. Other primer sequences were designed by Primer Express (Applied Biosystems).

Method for ApoB mRNA: C57BL/6J mice at 3-months of age were injected intraperitoneally with Tm (2 μg/gram body weight) in 150 mM dextrose solution. Mice were injected with the same volume of dextrose solution as a control. Liver tissue were collected from mice at 24 hours after injection for RNA isolation. Quantitative real-time RT-PCR was used to determine the ApoB and the spliced XBP1 mRNA levels. Fold changes of mRNA induction were determined after normalization of the mRNA levels to internal control 18S ribosomal RNA levels. Data points are fold changes of the ApoB or spliced XBP1 mRNA levels for individuals, n=5 mice per injection.
Method for CRP and SAP mRNA: Primary hepatocytes were isolated from fetal livers of C57BL/6J mice at embryonic stage E18, and were then treated with Tm (5 μg/ml) for 2, 4, 6, and 8 hours. Total RNA was isolated and subjected to Northern blot analysis to determine levels of CRP, SAP and BiP mRNAs (upper panel). Levels of spliced XBP1 mRNA were determined by quantitative real-time RT-PCR (lower panel). For panels A-B, experiments were performed at least 3 times and representative data are shown. […] Quantitative real-time RT-PCR was used to determine the mRNA levels.
Primary hepatocytes were isolated from fetal livers of C57BL/6J mice at embryonic stage E18 as previously described (Mackey and Darlington, 2004).

For the substance tunicamycin [Tm], the “cleavage of CREBH to release a 50 kD N-terminal fragment” value in the test on human CREBH (H2.35 cells stably expressing flag-tagged human CREBH, 8 hours, BFA 0.5 μg/ml, TNFα 20 ng/ml, IL6 40 ng/ml, DTT 5 mM, Tg 0.5 μM, Tm 5 μg/ml) is listed as “significantly induced cleavage of CREBH”. The “amount of 50 kD N-terminal cleaved CREBH fragment in the nuclear fraction” value in the test with human CREBH (Tm 5 μg/ml for 4, 8 or 12 hours) is listed as “gradually increased with increasing times of Tm treatment”. Further, the “nuclear accumulation of immunoreactive CREBH protein” value with CREBH is reported as “a significant portion of the immunoreactive CREBH protein accumulated in the nucleus”. The “induction of endogenous ApoB mRNA in mice” value with ApoB mRNA was “only slightly increased”. Besides, the “expression of the CRP and SAP mRNA” value in the test with CRP and SAP mRNA is “increased expression of the CRP and SAP mRNA in a time-dependent manner”. The “expression of APR genes and UPR genes in the livers of mice” value in test [1] is “induced expression of both the APR genes and the UPR genes”.
